SMILES strings stand for the structures. Some results are limits rather than exact numbers.

The values below come from patent publication US20240166624A1, “PPARG INVERSE AGONISTS AND USES THEREOF” (Flare Therapeutics Inc., priority 2021, published 2024).

Assay [1] addresses T1, PPARG/RXRA LBD heterodimer (Homo sapiens, UniProt P37231).
T1 construct: His-TEV-Q203-Y477; Uniprot ID P37231-2; made in house; host or cells: E. coli
As to the kind of experiment: PPARγ-NCOR1 recruitment assay (TR-FRET, biotinylated NCOR1 ID2 peptide). Type of assay: biochemical. Conditions: 80 nM Rosiglitazone, 3 hours, read-out: PPARG-NCOR recruitment assay EC50. As for the experimental part: PPARγ-NCOR1 Recruitment Assay:
Compound potency (EC50) and maximal extent of NCOR1 recruitment to PPARG were assessed a TR-FRET binding assay measuring association of a biotinylated NCOR1 ID2 peptide (Biotin-[…]-amide) to PPARG/RXRA LBD heterodimer. Specifically, a 20 microliters of TR-FRET master mix consisting of 2 nM WT PPARG LBD (E. coli expressed, His-TEV-Q203-Y477; Uniprot ID P37231-2), 2 nM WT RXRA LBD or mutant S427F RXRA LBD (E. coli expressed, Flag-TEV-E228-T462; […]. Mixtures were incubated for 3 hours and read in an EnVision plate reader (Perkin Elmer) with Ex/Em 615/665. To determine the potency (EC50) and extent of NCOR1 recruitment, TR-FRET ratios were normalized to the average ratio of DMSO control wells (0%) and to the average maximum ratio for positive control compound (T0070907 (2-chloro-5-nitro-N-4-pyridinyl-benzamide); defined as 100%) in CDD Vault and analyzed using the Levenberg-Marquardt algorithm.
(In general: TR-FRET usually uses a lanthanide donor and a delayed reading to cut background.)
T1 sequence (O75376 2251-2273 partner, one chain of several): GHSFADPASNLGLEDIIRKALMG

In assay [2] the target is T2, PPARG/RXRA LBD heterodimer (Homo sapiens, UniProt P37231).
T2 construct: His-TEV-Q203-Y477; Uniprot ID P37231-2; made in house; host or cells: E. coli
T2 sequence (P37231 203-477 isoform P37231-2): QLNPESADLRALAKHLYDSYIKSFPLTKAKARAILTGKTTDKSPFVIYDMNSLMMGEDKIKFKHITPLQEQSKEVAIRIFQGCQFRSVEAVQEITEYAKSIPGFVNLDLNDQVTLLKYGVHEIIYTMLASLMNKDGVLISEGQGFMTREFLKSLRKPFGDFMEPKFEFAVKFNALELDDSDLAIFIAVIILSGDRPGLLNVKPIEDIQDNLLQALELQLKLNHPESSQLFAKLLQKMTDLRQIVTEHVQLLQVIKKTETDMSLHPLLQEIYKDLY
T2 sequence (P19793 228-462 partner limits assumed): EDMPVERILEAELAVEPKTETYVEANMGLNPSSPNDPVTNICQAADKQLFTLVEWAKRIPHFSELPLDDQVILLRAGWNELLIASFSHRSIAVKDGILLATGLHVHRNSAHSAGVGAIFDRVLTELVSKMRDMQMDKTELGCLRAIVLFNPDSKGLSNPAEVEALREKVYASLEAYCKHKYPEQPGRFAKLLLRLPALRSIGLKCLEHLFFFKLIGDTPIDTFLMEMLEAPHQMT
As to the kind of experiment: PPARγ-MED1 blockade assay (TR-FRET, biotinylated MED1 LxxLL peptide). It counts as biochemical. Conditions: WT PPARG LBD/WT RXRA LBD, 80 nM Rosiglitazone, 3 hours. The procedure: PPARγ-MED1 Blockade Assay:
Compound potency (IC50) and maximal extent of MED1 repulsion to PPARG were assessed a TR-FRET binding assay measuring association of a biotinylated MED1 LxxLL peptide (Biotin-[…]-amide) to PPARG/RXRA LBD heterodimer. Specifically, a 20 microliters of TR-FRET master mix consisting of 2 nM WT PPARG LBD (E. coli expressed, His-TEV-Q203-Y477; Uniprot ID P37231-2), 2 nM WT RXRA LBD (E. coli expressed, Flag-TEV-E228-T462; […]. Mixtures were incubated for 3 hours and read in an EnVision plate reader (Perkin Elmer) with Ex/Em 615/665. To determine the potency (IC50) and extent of MED1 repulsion, TR-FRET ratios were normalized to the average ratio of DMSO control wells (0%) and to the average minimum ratio for positive control compound (GW9662 (2-chloro-5-nitrobenzanilide); defined as 100%) in CDD Vault and analyzed using the Levenberg-Marquardt algorithm.

The test system of assay [3] is ANGPTL4, a PPARG target gene, in HT1197 (RXRA S427F mutation) cells. Briefly: Bladder cancer pharmacodynamic assay, HT1197 cell assay (qPCR of ANGPTL4). It counts as cell-based. Conditions: Homo sapiens, 24 hours, 100 nM compound, relative to DMSO control. As for the experimental part:
Bladder Cancer Pharmacodynamic Assay
5637 (PPARG amplified) and HT1197 (RXRA S427F mutation) cells were used for assessment of modulation of PPARG target genes using quantitative PCR. Cells were treated for 24 hours with PPARG inverse agonists prior to analysis of FABP4 (IDT, Cat: Hs.PT 58.20106818) and ANGPTL4 (IDT, Cat: Hs.PT 58.25480012) expression, with expression of the housekeeping gene TBP (IDT, Cat: Hs.PT 58v.39858774) used to normalize expression across samples. Quantitative PCR was performed using an ABI QuantStudio 7 Flex Reaction system. Data were analyzed and reported relative to DMSO control using the comparative Ct method (ΔΔCt).
A general note: Quantitative PCR measures a nucleic acid by following its amplification.

Regarding `N#Cc1ccc(F)c(-c2cc(=O)c3c(F)cc(F)cc3[nH]2)c1` [Example 3, 3-(5,7-difluoro-4-oxo-1,4-dihydroquinolin-2-yl)-4-fluorobenzonitrile], the concentration for a half-maximal effect (EC50) in assay [1] and in assay [2] was 1000 to 10000 nM in each case.

As for `N#Cc1ccc(Cl)c(-c2cc(=O)c3c(Cl)cc(Cl)cc3[nH]2)c1` [Example 7, 4-chloro-3-(5,7-dichloro-4-oxo-1,4-dihydroquinolin-2-yl)benzonitrile], the EC50 in assay [1] and in assay [2] was 100 to 1000 nM each time. Further, at 0.1 µM the inhibition in assay [3] was 90%.

Consider `N#Cc1ccc(Cl)c(-c2cc(=O)c3cc(F)cc(F)c3[nH]2)c1` [Example 8, 4-chloro-3-(6,8-difluoro-4-oxo-1,4-dihydroquinolin-2-yl)benzonitrile], for which the EC50 in assay [1] and in assay [2] was greater than 10000 nM throughout.

With `Cc1cc2[nH]c(-c3cc(C#N)ccc3Cl)cc(=O)c2cc1C#N` [Example 9, 2-(2-chloro-5-cyanophenyl)-7-methyl-4-oxo-1,4-dihydroquinoline-6-carbonitrile], the half-maximal effective concentration (EC50) in assay [1] and in assay [2] was 1000 to 10000 nM in each case.

Consider `N#Cc1ccc(Cl)c(-c2cc(=O)c3c(F)c(F)ccc3[nH]2)c1` [Example 10, 4-chloro-3-(5,6-difluoro-4-oxo-1,4-dihydroquinolin-2-yl)benzonitrile], for which the EC50 in assay [1] was greater than 10000 nM; in assay [2] it was 1000 to 10000 nM.

For the molecule `N#Cc1ccc(Cl)c(-c2cc(=O)c3cc(C#N)c(C(F)(F)F)cc3[nH]2)c1` [Example 12, 2-(2-chloro-5-cyanophenyl)-4-oxo-7-(trifluoromethyl)-1,4-dihydroquinoline-6-carbonitrile], the EC50 was greater than 10000 nM in assay [1] and 1000 to 10000 nM in assay [2].

Turning to `N#Cc1ccc(Cl)c(-c2cc(=O)c3ccccc3[nH]2)c1` [Example 13, 4-chloro-3-(4-oxo-1,4-dihydroquinolin-2-yl)benzonitrile], the EC50 in assay [1] and in assay [2] was 1000 to 10000 nM throughout. Besides, the inhibition at 0.1 µM in assay [3] came out at 17%.

With `O=c1cc(-c2cc([N+](=O)[O-])ccc2Cl)[nH]c2ccccc12` [Example 14, 2-(2-chloro-5-nitrophenyl)quinolin-4(1H)-one], the EC50 in assay [1] and in assay [2] was less than 10 nM each time. The molecule further displayed an inhibition at 0.1 µM in assay [3] of 38%.

Turning to `Cc1c(F)cc2[nH]c(-c3cc(C#N)ccc3Cl)cc(=O)c2c1F` [Example 15, 4-chloro-3-(5,7-difluoro-6-methyl-4-oxo-1,4-dihydroquinolin-2-yl)benzonitrile], the figures for the EC50 in assay [1] and in assay [2] were 100 to 1000 nM and 10 to 100 nM, respectively. Besides, at 0.1 µM the inhibition in assay [3] was 89%.

Turning to `N#Cc1ccc(Cl)c(-c2cc(=O)c3c(F)cc(Cl)cc3[nH]2)c1` [Example 16, 4-chloro-3-(7-chloro-5-fluoro-4-oxo-1,4-dihydroquinolin-2-yl)benzonitrile], the concentration giving a half-maximal response (EC50) in assay [1] and in assay [2] was 100 to 1000 nM throughout. In addition, in assay [3], the inhibition at 0.1 µM turned out to be 88%.

For `N#Cc1ccc(Cl)c(-c2cc(=O)c3c(F)c(F)c(F)cc3[nH]2)c1` [Example 17, 4-chloro-3-(5,6,7-trifluoro-4-oxo-1,4-dihydroquinolin-2-yl)benzonitrile], the half-maximal effective concentration (EC50) in assay [1] and in assay [2] was 1000 to 10000 nM throughout. The molecule further came in with an inhibition at 0.1 µM in assay [3] of 66%.

For the molecule `N#Cc1ccc(Cl)c(-c2cc(=O)c3c(Cl)cc(F)cc3[nH]2)c1` [Example 18, 4-chloro-3-(5-chloro-7-fluoro-4-oxo-1,4-dihydroquinolin-2-yl)benzonitrile], the concentration giving a half-maximal response (EC50) in assay [1] and in assay [2] was 100 to 1000 nM throughout. In assay [3], this molecule had an inhibition at 0.1 µM of 83%.

On to `CN1CCN(c2c(F)cc3[nH]c(-c4cc(C#N)ccc4Cl)cc(=O)c3c2F)CC1` [Example 19, 4-chloro-3-(5,7-difluoro-6-(4-methylpiperazin-1-yl)-4-oxo-1,4-dihydroquinolin-2-yl)benzonitrile], for which the EC50 in assay [1] and in assay [2] was 1000 to 10000 nM throughout. Also, the inhibition at 0.1 µM in assay [3] was determined as 75%.

Consider `N#Cc1ccc(Cl)c(-c2cc(=O)c3c(F)c(N4CCN(CC(F)(F)F)CC4)c(F)cc3[nH]2)c1` [Example 20, 4-chloro-3-(5,7-difluoro-4-oxo-6-(4-(2,2,2-trifluoroethyl)piperazin-1-yl)-1,4-dihydroquinolin-2-yl)benzonitrile], for which the EC50 in assay [1] and in assay [2] was 100 to 1000 nM throughout. The inhibition at 0.1 µM in assay [3] worked out at 91%.

For `COc1cc(F)cc2[nH]c(-c3cc(C#N)ccc3Cl)cc(=O)c12` [Example 21, 4-chloro-3-(7-fluoro-5-methoxy-4-oxo-1,4-dihydroquinolin-2-yl)benzonitrile], the concentration giving a half-maximal response (EC50) in assay [1] and in assay [2] was 1000 to 10000 nM throughout. In assay [3], this molecule came in with an inhibition at 0.1 µM of 87%.

With `COc1cc(F)c2c(=O)cc(-c3cc(C#N)ccc3Cl)[nH]c2c1` [Example 22, 4-chloro-3-(5-fluoro-7-methoxy-4-oxo-1,4-dihydroquinolin-2-yl)benzonitrile], the EC50 in assay [1] and in assay [2] was 100 to 1000 nM each time. Also, 0.1 µM produced 29% inhibition in assay [3].

`N#Cc1ccc(Cl)c(-c2cc(=O)c3c(F)c(-c4ccncc4)c(F)cc3[nH]2)c1` [Example 23, 4-chloro-3-(5,7-difluoro-4-oxo-6-(pyridin-4-yl)-1,4-dihydroquinolin-2-yl)benzonitrile]: the concentration for a half-maximal effect (EC50) in assay [1] and in assay [2] was 100 to 1000 nM throughout. Besides, at 0.1 µM the inhibition in assay [3] was 55%.

Consider `Cc1c(F)c(F)cc2[nH]c(-c3cc(C#N)ccc3Cl)cc(=O)c12` [Example 24, 4-chloro-3-(6,7-difluoro-5-methyl-4-oxo-1,4-dihydroquinolin-2-yl)benzonitrile], for which the half-maximal effective concentration (EC50) in assay [1] and in assay [2] was 100 to 1000 nM in each case. The molecule further showed an inhibition at 0.1 µM in assay [3] of 69%.

Turning to `N#Cc1ccc(Cl)c(-c2cc(=O)c3c(F)c(Br)c(F)cc3[nH]2)c1` [Example 33, 3-(6-bromo-5,7-difluoro-4-oxo-1,4-dihydroquinolin-2-yl)-4-chlorobenzonitrile], the EC50 in assay [1] and in assay [2] was 100 to 1000 nM in each case.

Consider `N#Cc1ccc(Cl)c(-c2cc(=O)c3c(F)cc(C(F)(F)F)cc3[nH]2)c1` [Example 91, 4-chloro-3-(5-fluoro-4-oxo-7-(trifluoromethyl)-1,4-dihydroquinolin-2-yl)benzonitrile], for which the concentration for a half-maximal effect (EC50) in assay [1] and in assay [2] was 100 to 1000 nM each time.

Regarding `N#Cc1ccc(Cl)c(-c2[nH]c3cc(F)cc(F)c3c(=O)c2F)c1` [Example 118, 4-chloro-3-(3,5,7-trifluoro-4-oxo-1,4-dihydroquinolin-2-yl)benzonitrile], the EC50 in assay [1] and in assay [2] was greater than 10000 nM in each case.

On to `N#Cc1ccc(Cl)c(-c2[nH]c3cc(F)cc(F)c3c(=O)c2Cl)c1` [Example 119, 4-chloro-3-(3-chloro-5,7-difluoro-4-oxo-1,4-dihydroquinolin-2-yl)benzonitrile], for which the EC50 in assay [1] and in assay [2] was greater than 10000 nM throughout.

As a reminder, the EC50 is the concentration that produces a half-maximal response. Usually inhibition stands for how much of the control response was suppressed.
